Measured values taken from publication PMC7334220, “Diamond Blackfan anemia is mediated by hyperactive Nemo-like kinase” (Nature Communications, 2020).
Where two headings read alike, the source gives them in different places. Each block holds one compound with its values, some of them ahead of it.

What was measured:
[1] = tested on: RPS19-insufficient cord blood CD34+ HSPCs; assay: In vitro differentiation of cord blood CD34+ HSPCs transduced with shRNA against RPS19 (cell count and flow cytometry); assay type: cell-based, human
Description: Cells were plated at 2000 cell per well in 96-well plates in the presence or absence of doxycycline. Relative amounts of live cells were quantified by luciferase-based Cell titer-Glo® assay. b TGFβR1 inhibitors were assessed for their ability to increase cell expansion in RPS19-insuffiency. As a control, vehicle alone (no doxycycline) is represented at the far left while all other samples were treated with doxycycline to induce RPS19-insufficiency. c Kit^+ erythroid progenitors were grown in the absence of doxycycline and in the presence of 10 µM of indicated compound. In addition, cells were treated with 5 ng/ml of TGFβ1 for 5 days before being subjected to Cell titer-Glo® assay. d Differentiating cord blood CD34^+ progenitors were transduced with shRNA against luciferase or RPS19 and treated with inhibitors at working concentrations for TGFβ inhibition every three days. […] Cells were counted and CD235^+ erythroid (i and iii) and CD11b^+ myeloid cell (ii and iv) percentages were determined by flow cytometry. The number of erythroid or myeloid cells is expressed as a percentage of the number of that lineage with no cytokine or drug treatment. Bars represent means ± SD with individual data points overlaid. n = 3 independent experiments performed in triplicate. Statistics: two-tailed Student’s t test, significant *p < 0.05. Also see Supplementary Fig. 1. Erythroid expansion is depicted in red while myeloid is in purple. Source data are provided as a Source Data file.
Cells were counted and assessed for cell surface expression of CD235. b Lin-Kit^+ hematopoietic progenitors were obtained from three mouse embryos expressing tetracycline-inducible shRNA against RPS19 at day E14.5 or three untreated mice, and thee mature RPL11^+/+ or three mature RPL11^+/lox mice treated with tamoxifen for eight weeks. […] Values were expressed as a percentage relative to untreated controls. c, d Intracellular phosphorylation of NLK at Thr298 was determined by capillary electrophoresis using the Peggy Sue™ Automated Western blotting platform. After lysis, 4 µg of protein from the CD235^+ population was probed against pThr298-NLK and normalized to GAPDH. […] After counting the total cell population, the ratio of CD235^+ erythroblasts was determined by flow cytometry and number of CD235^+ erythroblasts calculated. This was expressed as a percentage of the average number of erythroid cells present in untreated healthy controls. f NLK phosphorylation was assessed by capillary electrophoresis as above. Bars represent means ± SD with individual data points overlaid. […] Statistics: two-tailed Student’s t test, significant *p < 0.05. Also see Supplementary Fig. 8. Source data are provided as a Source Data file.
Primary human CD34^+ hematopoietic stem and progenitor cells were purified from cord or peripheral blood (New York Blood Center) or from human fetal liver tissue (Advanced Bioscience Resources and University of California, Los Angeles Center for AIDS Research) by using magnetic-activated cell sorting (Miltenyi Biotec) and were cryopreserved. Upon thawing, cells were cultured in x-Vivo15 media (Lonza) containing 10% fetal bovine serum, fms-related tyrosine kinase 3 (50 ng/ml), […] (50 ng/ml), interleukin-3 (IL-3; 20 ng/ml), interleukin-6 (IL-6; 20 ng/ml), and stem cell factor (50 ng/ml). When applied, TGFβ1 was added at 5 ng/ml. Kp53A1 cells were obtained from Javier Leon and cultured in DMEM supplemented with 10% fetal bovine serum at 37 or 32 °C.

NLK = biological target: T1, NLK (Homo sapiens, UniProt Q9UBE8); assay: NLK in vitro kinase assay (NLK, c-Myb, Raptor substrates); assay type: biochemical
T1 construct: NLK, p38, or ALK5 for in vitro kinase assays were immunopurified from Kp53A1 cells; endogenous in cells; immunoprecipitated with anti-NLK (Abcam AB97642)
T1 sequence (Q9UBE8 1-527): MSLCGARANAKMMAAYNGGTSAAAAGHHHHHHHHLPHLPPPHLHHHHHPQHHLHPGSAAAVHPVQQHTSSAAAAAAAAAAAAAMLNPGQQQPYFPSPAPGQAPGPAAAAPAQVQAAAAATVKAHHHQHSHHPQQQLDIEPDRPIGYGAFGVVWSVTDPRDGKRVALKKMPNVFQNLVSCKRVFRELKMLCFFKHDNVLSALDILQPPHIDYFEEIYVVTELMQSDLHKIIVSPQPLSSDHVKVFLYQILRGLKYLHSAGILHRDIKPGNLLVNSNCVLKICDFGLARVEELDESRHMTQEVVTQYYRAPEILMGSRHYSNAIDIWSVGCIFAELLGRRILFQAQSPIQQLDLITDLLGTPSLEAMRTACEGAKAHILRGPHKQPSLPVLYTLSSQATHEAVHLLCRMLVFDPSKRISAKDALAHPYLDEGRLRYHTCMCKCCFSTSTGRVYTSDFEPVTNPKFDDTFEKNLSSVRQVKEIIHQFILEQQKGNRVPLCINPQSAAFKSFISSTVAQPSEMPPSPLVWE
Description: Equivalent protein was loaded between samples. b—blue Transduced progenitors were differentiated for 15 days and sorted for surface expression of CD235 + , CD41 + and CD11b + population NLK mRNA was assessed by qRT-PCR. c Control and shRPS19-transduced CB progenitors were differentiated for 10 days prior to separation into CD71^+ and CD71^- populations and assessed for pThr298-NLK phosphorylation by Western blot analysis. d—purple CB CD34 + progenitors were transduced with shRNA against luciferase (shLuc) or RPS19 (shRPS19) along with CFP-NLK and YFP-NLK and differentiated for 10 days. NLK dimerization was quantified by FRET. e—left panel NLK was immunoprecipitated from transduced differentiating CD71^+ and CD71^- populations after 10 days, and incubated in the presence of ATP, Mg^2+ and dephosphorylated NLK (i orange), c-Myb (ii—blue) and Raptor (iii—green) for 30 min at 37 °C. Phosphorylation was detected by a combination of anti^-phosphoserine-HRP and anti-phosphothreonine-HRP antibodies, or mouse anti-phosphoserine and anti-mouse-HRP antibodies. e—right panel For comparison, NLK in vitro kinase activity was assessed from CD235^+, CD41^+ and CD11b^+ populations enriched after identical treatments. f A panel of eight small molecule p38 inhibitors were titrated into in vitro kinase assays in the presence of activated NLK or p38 from stimulated Kp53A1 cells. The IC50 for NLK and p38 for each compound was calculated. The data are represented diagrammatically with IC50 values represented as vertical lines along a concentration gradient for NLK and p38. Kinase activity is represented as blue and the extent of inhibition is depicted in white. […] Bars represent means ± SD with individual data points overlaid. n = 3 independent experiments performed in triplicate.Statistics: two-tailed Student’s t test, significant *p < 0.05. Also see Supplementary Figs. 3 and 4. Source data are provided as a Source Data file. […] Inhibitors were added to cells at indicated concentrations with a final DMSO concentration of 0.5%. […] IC50 calculations were obtained using 8–9 concentrations of compound and generated using the IC50 Calculator software by AAT Bioquest®. NLK, p38, or ALK5 for in vitro kinase assays were immunopurified from Kp53A1 cells. NLK activation was induced by incubating cells at 32° for 24-48 h, p38 by stimulating with IL-3, IL-6, SCF, and Epo at the same concentrations used for differentiating erythroid progenitors.
For NLK kinase analysis, cultures were treated as indicated and lysed for 30 min at 4 °C in 750 μl of kinase lysis buffer (50 mM Tris [pH 7.4], 5 mM EDTA, 250 mM NaCl, 0.1% Triton X-100, 50 mM NaF, 0.1 trypsin inhibitor unit of aprotinin per ml, 50 μg of phenylmethylsulfonyl fluoride per ml, 100 μM sodium vanadate, 1 μg of leupeptin per ml). For TGFβR1 kinase analysis, cells were lysed in membrane kinase buffer (10 mM Tris-HCl (pH8.0), 140 mM NaCl, 300 mM KCl, 0.5% Triton X-100, and 0.5% sodium deoxycholate with complete protease inhibitor cocktail (Roche)). Extracts were clarified, and equivalent protein was incubated overnight at 4 °C with antibody (NLK: #AB97642; Abcam, TGFβR1: V22; Santa Cruz Biotechnology). Immune complexes were collected with Catch and Release® V2.0 Reversible Immunoprecipitation System and diluted in kinase buffer (25 mM Tris [pH 7.4], 10 mM MgCl2, 1 mM dithiothreitol). When cell numbers were limiting, NLK activity was amplified by adding 0.5 µg dephosphorylated NLK prior to performing kinase reaction. 50 μl of kinase buffer containing NLK or TGFβR1 sample and 5 μM ATP was incubated in the presence of biotinylated substrate (NLK, c-Myb, or Raptor for NLK and Smad2 or Smad3 for TGFβR1) immobilized on streptavidin-coated 96-well plates.

[2] = tested on: ribosome-competent cord blood CD34+ HSPCs (shLuc); assay: In vitro differentiation of cord blood CD34+ HSPCs transduced with control shRNA (luciferase); assay type: cell-based, human; details: ribosome-competent cells; 5 ng/ml TGFβ1; 5 µM compound; 15 days; Fig. 1e
Description: Lin-Kit^+ fetal liver cells were obtained from mouse embryos expressing tet-on shRNA against RPS19, at day E14.5-15.5. Cells were plated at 2000 cell per well in 96-well plates in the presence or absence of doxycycline. Relative amounts of live cells were quantified by luciferase-based Cell titer-Glo® assay. b TGFβR1 inhibitors were assessed for their ability to increase cell expansion in RPS19-insuffiency. As a control, vehicle alone (no doxycycline) is represented at the far left while all other samples were treated with doxycycline to induce RPS19-insufficiency. c Kit^+ erythroid progenitors were grown in the absence of doxycycline and in the presence of 10 µM of indicated compound. In addition, cells were treated with 5 ng/ml of TGFβ1 for 5 days before being subjected to Cell titer-Glo® assay. d Differentiating cord blood CD34^+ progenitors were transduced with shRNA against luciferase or RPS19 and treated with inhibitors at working concentrations for TGFβ inhibition every three days. […] Cells were counted and CD235^+ erythroid (i and iii) and CD11b^+ myeloid cell (ii and iv) percentages were determined by flow cytometry. The number of erythroid or myeloid cells is expressed as a percentage of the number of that lineage with no cytokine or drug treatment. […]
Fig. 8 NLK inhibition increases expansion of erythroid progenitors from human and murine models of DBA. a Human cord blood CD34^+ progenitors were transduced with lentivirus co-expressing GFP with shRNA against luciferase (shLuc), RPS19 (shRPS19), or RPL11 (shRPL11). […] Cells were counted and assessed for cell surface expression of CD235. b Lin-Kit^+ hematopoietic progenitors were obtained from three mouse embryos expressing tetracycline-inducible shRNA against RPS19 at day E14.5 or three untreated mice, and thee mature RPL11^+/+ or three mature RPL11^+/lox mice treated with tamoxifen for eight weeks. […] Values were expressed as a percentage relative to untreated controls. c, d Intracellular phosphorylation of NLK at Thr298 was determined by capillary electrophoresis using the Peggy Sue™ Automated Western blotting platform. […]

p38 = details: reported, no reference given; read-out: reported IC50 against p38; cited from earlier work
[3] = Fig. 3f, activated NLK from stimulated Kp53A1 cells, read-out: NLK Observed IC50

Compound: C[S+]([O-])c1ccc(-c2nc(-c3ccncc3)c(-c3ccc(F)cc3)[nH]2)cc1 (centres unmarked) [SB203580]
- erythroid expansion (CD235) in RPS19-insufficient HSPCs ([1]; 12 days, recommended concentrations, rebuttal Experiment 12): significantly increased
- improvement of erythropoiesis (comparison of SD208 with p38 inhibitors) ([1]; CD235+, 12 days, recommended concentrations, Supplementary Fig. 2b): improved erythropoiesis

- IC50 (NLK; [3]): 3.6 nM
Compound: Cn1c(NC[C@@H](N)Cc2ccccc2)nc(-c2ccncc2)c(-c2ccc3ccccc3c2)c1=O [AMG-548]

Compound: Cc1cccc(-c2[nH]c(C(C)(C)C)nc2-c2ccc3nccnc3c2)n1 [SB525334]
- erythropoiesis, % of controls, in TGFβ-treated cells ([1]; RPS19-insufficient cells, 5 ng/ml TGFβ1, 5 µM, Fig. 1e.iii): 128.6%
- effect on erythropoiesis of cells not treated with TGFβ ([1]; RPS19-insufficient cells, 5 µM, Fig. 1e.iii): did not influence
- restoration of erythroid and myeloid expansion of TGFβ-treated cells [2]: restored

Compound: Cc1cccc(-c2nn3c(c2-c2ccnc4ccc(C(N)=O)cc24)CCC3)n1 [Galunisertib]
- increase of erythropoiesis in RPS19-insufficiency compared with control treated cells ([1]; CD235+ erythroid cells after 15 days, inhibitors at working concentrations for TGFβ inhibition every three days, Fig. 1d): 3.2 fold
- IC50 (NLK; Supplementary Fig. 1e, read-out: IC50 against NLK): 1340 nM
- inhibition of NLK-mediated phosphorylation of NLK substrates NLK, c-Myb and Raptor (NLK; added to activated NLK in vitro, Supplementary Fig. 1c): 40–45%
- IC50 (p38): 405 nM

- IC50 (NLK; [3]): 9300 nM
Compound: CCc1nc(-c2cccc(C)c2)c(-c2ccnc(NC(=O)c3ccccc3)c2)s1 [TAK-715]
